Source: US7445802B2, “Site-specific in situ generation of allicin using a targeted alliinase delivery system for the treatment of cancers, tumors, infectious diseases and other allicin-sensitive diseases” (Yeda Research and Development Co. Ltd, priority 2000, dated 2008)

What was measured:
CB-2 cells [1] = assay: Trypan blue viability of CB-2 cells; format: cell-based
Protocol: (§1) The following cell lines were used: N87 human gastric tumor cell line expressing the ErbB-2 receptors (described by Park et al, 1990); CB-2 cell line, generated by transfection of Chinese hamster ovary (CHO) cells with mammalian expression vectors that direct expression of ErbB-2 (Tzahar et al, 1996); and 32D cell line known to be devoid of the ErbB-2 receptors (described by Pinkas-Kramarski, 1996).
(§2) Viability of living cells was done after staining with Trypan Blue (0.025%) for 10 minutes.
(§3) Cell cultures of N87 (20,000 cells/well) were grown in 96-well plates and 32D cells were grown in suspension in 12-well plates (200,000 cells/ml). Cells were treated with: none, mAb ErbB-2 or mAb-ErbB-2-alliinase conjugate (total protein 2 μg/20,000 cells) for 1 hour at 37° C.

N-87 tumors = assay: In vivo assay of antitumor effects (tumor growth) in nude mice injected with N-87 cells; details: alliin alone i.p., control mice
Protocol: N-87 cultured cells (3-5×10^6) were injected subcutaneously into the back of the mice. One to 5 days later, groups of 6 to 8 mice received either none or mAb-alliinase conjugate by intravenous injection (20 μg mAb/mouse). Conjugates were injected with 3-4 days intervals.
All mice were supplemented with Pyridoxine (vitamin B6) in the drinking water (100 mg/L). […] Tumor size was measured every second day.
All the animal groups were injected with N-87 cells 1-5 days before any treatment. • Group 1. […] Mice were treated with mAb-alliinase conjugates and alliin was administered regularly as described below.
MAb-alliinase conjugate was injected I.V. every 3-4 days. Mice were treated ×5 with the conjugate (20 μg/mouse) in. 3-4 day intervals. Total amount of mAb in the conjugate/mouse was 0.1 mg.

N87 cancer cells = assay: Trypan blue viability of N87 cells; format: cell-based; details: alliin only, mAb ±alliin, or conjugate without alliin
Protocol: as §1, §2, §3

[2] = background statement; cited from earlier work
CB-2 cells [3] = assay: [3H]-thymidine incorporation (cell proliferation) in CB-2 cells; format: cell-based, Chinese hamster; details: allicin 0-54 μM, 16 h
Protocol: as §1
[Methyl-^3H]thymidine incorporation (Amersham Pharmacia Biotech, UK) into DNA was measured in 96-well plates. Cells (1,000-20,000 cells/well) were grown 6 h after seeding at 37° C. Cells were treated with conjugates for 1 hour and then 3×washed with medium. […] Cells were harvested after 16 hours incubation at 37° C.
Different concentrations of pure allicin were applied to tissue cultured […] CB-2 cancer cells for quantitative determination of the effective concentration. Thus, CB-2 cells were cultured in 96-well plate (2000 cells/well) for 6-16 h at 37° C. Pure allicin was added (10 μl/well) from pre-diluted allicin solutions in PBS to final concentrations of 0-54 μM (0-9 μg/ml). [^3H]-Thymidine diluted with medium was added to the cell culture (0.8 μCi/well). Cells were harvested after incubation for 16 h at 37° C. and the level of incorporated [^3H]-thymidine was measured to determine the extent of cell proliferation. […]

Compound | cell damage (Trypan blue) (CB-2 cells [1]; CB-2, alliin only, mAb ±alliin, or conjugate without alliin) | tumor size (N-87 tumors) | cell damage (Trypan blue) (N87 cancer cells) | lethal concentration (CB-2 cells [1]; Trypan blue staining, CB-2 cells) | lifetime after being mixed with blood [2] | [3H]-thymidine incorporation (DNA synthesis) (CB-2 cells [3])
S-allyl-L-cysteine sulfoxide [alliin] | not damaged | no effect on the tumor size | not damaged | – | – | –
C=CCS[S+]([O-])CC=C (stereo not drawn) [allicin, thio-2-propene-1-sulfinic acid S-allyl ester] | – | – | – | about 20 μM | disappears within a few minutes | inhibits DNA synthesis
